Data from ChEMBL document CHEMBL1145379 (J Med Chem, 2007).

Legend:
Coagulation factor X = Coagulation factor X (Homo sapiens, UniProt P00742); assay: Inhibition of human F10a; details: read-out: Ki app
Prothrombin = Prothrombin (Homo sapiens, UniProt P00734); assay: Inhibition of human F2a; details: read-out: Ki app
Plasma = assay: Anticoagulant potency in human plasma assessed as concentration for doubling of prothrombin time; format: functional

Chain of Coagulation factor X (P00742 41-179 limits assumed): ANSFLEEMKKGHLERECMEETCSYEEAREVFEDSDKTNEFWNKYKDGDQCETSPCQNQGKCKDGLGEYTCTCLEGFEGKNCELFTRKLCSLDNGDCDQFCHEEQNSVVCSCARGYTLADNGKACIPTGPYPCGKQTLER
Chain of Coagulation factor X (P00742 235-488 limits assumed): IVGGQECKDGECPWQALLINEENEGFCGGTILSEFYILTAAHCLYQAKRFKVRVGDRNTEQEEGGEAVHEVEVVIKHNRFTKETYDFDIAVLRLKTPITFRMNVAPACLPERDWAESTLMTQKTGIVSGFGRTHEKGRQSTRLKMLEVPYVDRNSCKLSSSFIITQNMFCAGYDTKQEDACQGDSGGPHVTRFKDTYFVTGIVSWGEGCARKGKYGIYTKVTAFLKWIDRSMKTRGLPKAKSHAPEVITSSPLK

SMILES	Ki (Coagulation factor X)	Ki (Prothrombin)	Activity (Plasma)
COc1cc(Cl)cc(C(=O)Nc2ccc(Cl)cn2)c1NC(=O)c1scc(CN2CCC(O)CC2)c1Cl	2.2 nM	770 nM	3.2 µM
COc1cc(Cl)cc(C(=O)Nc2ccc(Cl)cn2)c1NC(=O)c1scc(CN(C)S(C)(=O)=O)c1Cl	0.045 nM	340 nM	2.2 µM
COc1cc(Cl)cc(C(=O)Nc2ccc(Cl)cn2)c1NC(=O)c1scc(CN(C)C(=O)NCCN2CCCC2)c1Cl	0.036 nM	140 nM	1.1 µM
COc1cc(Cl)cc(C(=O)Nc2ccc(Cl)cn2)c1NC(=O)c1scc(CN(C)c2ncc[nH]2)c1Cl	0.02 nM	860 nM	1.8 µM
COc1cc(Cl)cc(C(=O)Nc2ccc(Cl)cn2)c1NC(=O)c1scc(Cn2ccnc2NC(C)C)c1Cl	0.008 nM	1200 nM	2.3 µM
COc1cc(Cl)cc(C(=O)Nc2ccc(Cl)cn2)c1NC(=O)c1scc(CN(C)C2=NCC(C)O2)c1Cl (configuration not stated)	0.12 nM	410 nM	1.2 µM
CCNC(=O)N(C)Cc1csc(C(=O)Nc2c(OC)cc(Cl)cc2C(=O)Nc2ccc(Cl)cn2)c1Cl	0.02 nM	450 nM	5.8 µM
COc1cc(Cl)cc(C(=O)Nc2ccc(Cl)cn2)c1NC(=O)c1scc(Cn2ccnc2N)c1Cl	0.006 nM	3500 nM	0.77 µM
COc1cc(Cl)cc(C(=O)Nc2ccc(Cl)cn2)c1NC(=O)c1scc(CN(C)CCCN(C)C)c1Cl	0.024 nM	300 nM	0.24 µM
COc1cc(Cl)cc(C(=O)Nc2ccc(Cl)cn2)c1NC(=O)c1scc(CN(CC(F)(F)F)C2=NCCO2)c1Cl	2.2 nM	> 5000 nM	28 µM
COc1cc(Cl)cc(C(=O)Nc2ccc(Cl)cn2)c1NC(=O)c1scc(CN(C)C(C)=N)c1Cl	≤ 0.01 nM	920 nM	0.25 µM
COc1cc(Cl)cc(C(=O)Nc2ccc(Cl)cc2)c1NC(=O)c1scc(CN2CCN(C)CC2)c1Cl	0.43 nM	1300 nM	4.2 µM
COc1cc(Cl)cc(C(=O)Nc2ccc(Cl)cn2)c1NC(=O)c1scc(CN(C)C(=O)NCCO)c1Cl	0.05 nM	360 nM	4.1 µM
COc1cc(Cl)cc(C(=O)Nc2ccc(Cl)cn2)c1NC(=O)c1scc(CN(C)CC(C)(C)O)c1Cl	0.71 nM	1100 nM	5.3 µM
COc1cc(Cl)cc(C(=O)Nc2ccc(Cl)cn2)c1NC(=O)c1scc(CN2CCNC2=N)c1Cl	≤ 0.01 nM	1500 nM	0.27 µM
COc1cc(Cl)cc(C(=O)Nc2ccc(Cl)cn2)c1NC(=O)c1scc(CN(C)C2=NCCC2)c1Cl	0.004 nM	970 nM	0.4 µM
CCN(C)Cc1csc(C(=O)Nc2c(OC)cc(Cl)cc2C(=O)Nc2ccc(Cl)cn2)c1Cl	0.22 nM	1700 nM	1.4 µM
COc1cc(Cl)cc(C(=O)Nc2ccc(Cl)cn2)c1NC(=O)c1scc(CN2CCOCC2)c1Cl	1.4 nM	1400 nM	4.9 µM
COc1cc(Cl)cc(C(=O)Nc2ccc(Cl)cn2)c1NC(=O)c1scc(CN(C)C(=O)NCCC(=O)O)c1Cl	0.022 nM	630 nM	7 µM
COc1cc(Cl)cc(C(=O)Nc2ccc(Cl)cn2)c1NC(=O)c1scc(CN(C)CCCO)c1Cl	0.18 nM	1100 nM	1.5 µM
COc1cc(Cl)cc(C(=O)Nc2ccc(Cl)cn2)c1NC(=O)c1scc(CN(C)c2ncco2)c1Cl	0.059 nM	60 nM	4.2 µM
COc1cc(Cl)cc(C(=O)Nc2ccc(Cl)cn2)c1NC(=O)c1scc(CN(C)C2=NCCCO2)c1Cl	0.012 nM	160 nM	0.22 µM

SMILES	Ki (Coagulation factor X)	Ki (Prothrombin)	Activity (Plasma)
COc1cc(Cl)cc(C(=O)Nc2ccc(Cl)cn2)c1NC(=O)c1scc(CN2CCN=C2SC)c1Cl	0.004 nM	2200 nM	0.53 µM
CCNCc1csc(C(=O)Nc2c(OC)cc(Cl)cc2C(=O)Nc2ccc(Cl)cn2)c1Cl	0.4 nM	2600 nM	2.2 µM
COc1cc(Cl)cc(C(=O)Nc2ccc(Cl)cn2)c1NC(=O)c1scc(CN(C)CC(O)CO)c1Cl (configuration not stated)	0.26 nM	1200 nM	3.2 µM
CCN(CC)Cc1csc(C(=O)Nc2c(OC)cc(Cl)cc2C(=O)Nc2ccc(Cl)cn2)c1Cl	0.32 nM	1500 nM	2.4 µM
COc1cc(Cl)cc(C(=O)Nc2ccc(Cl)cn2)c1NC(=O)c1scc(CNC(C)C)c1Cl	1.4 nM	5400 nM	–
COc1cc(Cl)cc(C(=O)Nc2ccc(Cl)cn2)c1NC(=O)c1scc(CN(C2=NCCO2)C(C)(C)C)c1Cl	0.12 nM	1700 nM	–
COc1cc(Cl)cc(C(=O)Nc2ccc(Cl)cn2)c1NC(=O)c1scc(CN2CCSC2=N)c1Cl	≤ 0.01 nM	2600 nM	1.4 µM
COCCN(Cc1csc(C(=O)Nc2c(OC)cc(Cl)cc2C(=O)Nc2ccc(Cl)cn2)c1Cl)C1=NCCO1	0.26 nM	2000 nM	1.1 µM
CCNc1nccn1Cc1csc(C(=O)Nc2c(OC)cc(Cl)cc2C(=O)Nc2ccc(Cl)cn2)c1Cl	0.005 nM	1100 nM	1.8 µM
COc1cc(Cl)cc(C(=O)Nc2ccc(Cl)cn2)c1NC(=O)c1scc(CN(C)C(=N)N)c1Cl	≤ 0.01 nM	630 nM	0.4 µM
COc1cc(Cl)cc(C(=O)Nc2ccc(Cl)cn2)c1NC(=O)c1scc(CN(C)C2=NC(=O)CO2)c1Cl	0.026 nM	90 nM	2.2 µM
COc1cc(Cl)cc(C(=O)Nc2ccc(Cl)cn2)c1NC(=O)c1scc(CN2CC(=O)NC2=N)c1Cl	0.034 nM	340 nM	3.3 µM
COc1cc(Cl)cc(C(=O)Nc2ccc(Cl)cn2)c1NC(=O)c1scc(CN2CCCC2)c1Cl	0.52 nM	1400 nM	1.6 µM
CCN(Cc1csc(C(=O)Nc2c(OC)cc(Cl)cc2C(=O)Nc2ccc(Cl)cn2)c1Cl)C1=NC(C)CO1 (configuration not stated)	0.031 nM	580 nM	3.8 µM
COc1cc(Cl)cc(C(=O)Nc2ccc(Cl)cn2)c1NC(=O)c1scc(CN)c1Cl	1 nM	> 5000 nM	4.2 µM
COc1cc(Cl)cc(C(=O)Nc2ccc(Cl)cn2)c1NC(=O)c1scc(Cn2ccnc2C)c1Cl	≤ 0.01 nM	440 nM	1.4 µM
COc1cc(Cl)cc(C(=O)Nc2ccc(Cl)cn2)c1NC(=O)c1scc(CN2CCOC2=N)c1Cl	≤ 0.01 nM	1100 nM	0.26 µM
COc1cc(Cl)cc(C(=O)Nc2ccc(Cl)cn2)c1NC(=O)c1scc(CN(C)C2=NCCS2)c1Cl	0.024 nM	100 nM	1.8 µM
COc1cc(Cl)cc(C(=O)Nc2ccc(Cl)cn2)c1NC(=O)c1scc(CN(C)CC(C)O)c1Cl (configuration not stated)	0.4 nM	2100 nM	1.5 µM
COc1cc(Cl)cc(C(=O)Nc2ccc(Cl)cn2)c1NC(=O)c1scc(Cn2ccnc2)c1Cl	0.022 nM	510 nM	2 µM
CCN(Cc1csc(C(=O)Nc2c(OC)cc(Cl)cc2C(=O)Nc2ccc(Cl)cn2)c1Cl)C1=NCCO1	0.012 nM	470 nM	0.57 µM
